Paper PMC12283027, “Development of Potent and Selective RIPK1 Degraders Targeting Its Nonenzymatic Function for Cancer Treatment” (Journal of Medicinal Chemistry, 2025)

Each compound was assayed against T1, Receptor-interacting protein kinase 1 (RIPK1) (Homo sapiens, UniProt Q13546) (assay: cell-based). Settings: HEK293T-RIPK1-HiBiT cells; read-out: Dmax (HEK293T-RIPK1-HiBiT cell line).
T1 construct: with VHL
Set-up: HiBiT luminescence of CRISPR-tagged endogenous RIPK1 (C-terminal HiBiT) after PROTAC treatment; degradation DC50 and Dmax
Method: Screening of RIPK1 Degraders Using HEK-293T-RIPK1-HiBiT cells  3 Primary screening RIPK1 degraders using HEK293T-RIPK1-HiBiT cell line. Cells were seeded in 96-well plates and treated with test compounds for 20 h. After treatment, Bioluminescence signal reflecting RIPK1 protein level was generated by adding Nano-Glo HiBiT detect reagent. A) Bioluminescence signal was visualized using Bio-Rad ChemiDoc MP Imaging system. The grayscale intensity is positively correlated with protein abundance. B) Relative luminescence Units (RLUs) in each well was measured using CLARIOstar plate reader. DC50 values were calculated by nonlinear regression analysis in GraphPad Prism software. DC50 = dose that reduces RIPK1 protein by 50%. D max = maximum reduction of RIPK1 protein achieved by the compound. Guide RNA oligos for RIPK1 (foward: CACCGA-GCCCAT-CCAGGG-TTAGTTC. reverse: AAACGA-ACTAAC-CCTGGA-TGGGCTC) were cloned into Cas9 expression plasmid (pSpCas9–2A-GFP purchased from Addgene), and cotransfected with donor DNA oligo using FuGENE HD Transfection Reagent (Promega). GFP positive cells were FACS sorted and single clones were screened for HiBiT signal by Nano Glo HiBiT Lytic Detection System (Promega).

T1 sequence (Q13546 whole entry): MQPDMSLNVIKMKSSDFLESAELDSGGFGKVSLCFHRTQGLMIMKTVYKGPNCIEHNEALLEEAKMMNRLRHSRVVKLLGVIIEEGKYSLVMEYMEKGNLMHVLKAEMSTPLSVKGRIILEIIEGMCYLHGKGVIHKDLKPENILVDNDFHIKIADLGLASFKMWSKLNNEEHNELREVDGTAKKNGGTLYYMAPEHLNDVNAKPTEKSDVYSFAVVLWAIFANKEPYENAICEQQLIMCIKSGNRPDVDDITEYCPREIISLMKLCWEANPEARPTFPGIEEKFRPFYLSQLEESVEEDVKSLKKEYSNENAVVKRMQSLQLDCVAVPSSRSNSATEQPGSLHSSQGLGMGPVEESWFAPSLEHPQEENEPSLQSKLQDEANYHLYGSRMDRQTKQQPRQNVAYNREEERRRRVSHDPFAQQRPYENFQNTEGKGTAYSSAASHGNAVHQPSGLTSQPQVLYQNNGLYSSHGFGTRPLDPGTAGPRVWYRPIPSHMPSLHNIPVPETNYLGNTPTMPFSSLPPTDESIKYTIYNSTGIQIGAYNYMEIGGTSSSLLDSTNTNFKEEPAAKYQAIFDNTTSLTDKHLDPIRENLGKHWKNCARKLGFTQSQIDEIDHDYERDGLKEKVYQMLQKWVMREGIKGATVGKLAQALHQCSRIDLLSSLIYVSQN
T1 sequence (P40337 whole entry partner): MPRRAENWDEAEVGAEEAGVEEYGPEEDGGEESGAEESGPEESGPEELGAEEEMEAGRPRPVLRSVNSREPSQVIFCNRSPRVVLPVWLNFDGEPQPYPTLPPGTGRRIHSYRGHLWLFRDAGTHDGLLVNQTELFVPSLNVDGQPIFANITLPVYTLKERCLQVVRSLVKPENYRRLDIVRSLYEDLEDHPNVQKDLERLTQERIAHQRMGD

Row | Structure (SMILES) | Dmax [%]
1 | Cc1ncsc1-c1ccc([C@H](C)NC(=O)[C@@H]2C[C@@H](O)CN2C(=O)[C@@H](NC(=O)COc2ccc(CCNC(=O)Cn3cc(-c4cnc(N)c5c(-c6ccc7c(c6)CCN7C(=O)Cc6ccccc6)csc45)cn3)cc2)C(C)(C)C)cc1 [204-2] | 95
2 | Cc1ncsc1-c1ccc([C@H](C)NC(=O)[C@@H]2C[C@@H](O)CN2C(=O)[C@@H](NC(=O)CCOc2ccc(CCNC(=O)Cn3cc(-c4cnc(N)c5c(-c6ccc7c(c6)CCN7C(=O)Cc6ccccc6)csc45)cn3)cc2)C(C)(C)C)cc1 [204-4] | 96
3 | Cc1ncsc1-c1ccc([C@H](C)NC(=O)[C@@H]2C[C@@H](O)CN2C(=O)[C@@H](NC(=O)CCCOc2ccc(CCNC(=O)Cn3cc(-c4cnc(N)c5c(-c6ccc7c(c6)CCN7C(=O)Cc6ccccc6)csc45)cn3)cc2)C(C)(C)C)cc1 [204-6] | 81
4 | Cc1ncsc1-c1ccc([C@H](C)NC(=O)[C@@H]2C[C@@H](O)CN2C(=O)[C@@H](NC(=O)COCCOCCNC(=O)Cn2cc(-c3cnc(N)c4c(-c5ccc6c(c5)CCN6C(=O)Cc5ccccc5)csc34)cn2)C(C)(C)C)cc1 [208-2] | 78
5 | Cc1ncsc1-c1ccc([C@H](C)NC(=O)[C@@H]2C[C@@H](O)CN2C(=O)[C@@H](NC(=O)COCCOCCOCCNC(=O)Cn2cc(-c3cnc(N)c4c(-c5ccc6c(c5)CCN6C(=O)Cc5ccccc5)csc34)cn2)C(C)(C)C)cc1 [208-4] | 75
6 | Cc1ncsc1-c1ccc([C@H](C)NC(=O)[C@@H]2C[C@@H](O)CN2C(=O)[C@@H](NC(=O)COCCOCCOCCOCCNC(=O)Cn2cc(-c3cnc(N)c4c(-c5ccc6c(c5)CCN6C(=O)Cc5ccccc5)csc34)cn2)C(C)(C)C)cc1 [208-6] | 55
7 | Cc1ncsc1-c1ccc([C@H](C)NC(=O)[C@@H]2C[C@@H](O)CN2C(=O)[C@@H](NC(=O)COc2ccc(CNC(=O)Cn3cc(-c4cnc(N)c5c(-c6ccc7c(c6)CCN7C(=O)Cc6ccccc6)csc45)cn3)cc2)C(C)(C)C)cc1 [214-6] | 71
8 | Cc1ncsc1-c1ccc([C@H](C)NC(=O)[C@@H]2C[C@@H](O)CN2C(=O)[C@@H](NC(=O)CCCOc2ccc(CNC(=O)Cn3cc(-c4cnc(N)c5c(-c6ccc7c(c6)CCN7C(=O)Cc6ccccc6)csc45)cn3)cc2)C(C)(C)C)cc1 [214-7] | 81
9 | Cc1ncsc1-c1ccc([C@H](C)NC(=O)[C@@H]2C[C@@H](O)CN2C(=O)[C@@H](NC(=O)CCCCOc2ccc(CNC(=O)Cn3cc(-c4cnc(N)c5c(-c6ccc7c(c6)CCN7C(=O)Cc6ccccc6)csc45)cn3)cc2)C(C)(C)C)cc1 [214-8] | 90
10 | Cc1ncsc1-c1ccc([C@H](C)NC(=O)[C@@H]2C[C@@H](O)CN2C(=O)[C@@H](NC(=O)CCCCCOc2ccc(CNC(=O)Cn3cc(-c4cnc(N)c5c(-c6ccc7c(c6)CCN7C(=O)Cc6ccccc6)csc45)cn3)cc2)C(C)(C)C)cc1 [214-9] | 87
11 | Cc1ncsc1-c1ccc([C@H](C)NC(=O)[C@@H]2C[C@@H](O)CN2C(=O)[C@@H](NC(=O)CCCCCCOc2ccc(CNC(=O)Cn3cc(-c4cnc(N)c5c(-c6ccc7c(c6)CCN7C(=O)Cc6ccccc6)csc45)cn3)cc2)C(C)(C)C)cc1 [214-10] | 92
12 | Cc1ncsc1-c1ccc([C@H](C)NC(=O)[C@@H]2C[C@@H](O)CN2C(=O)[C@@H](NC(=O)CNC(=O)Cn2cc(-c3cnc(N)c4c(-c5ccc6c(c5)CCN6C(=O)Cc5ccccc5)csc34)cn2)C(C)(C)C)cc1 [216-9] | 1
13 | Cc1ncsc1-c1ccc([C@H](C)NC(=O)[C@@H]2C[C@@H](O)CN2C(=O)[C@@H](NC(=O)CCNC(=O)Cn2cc(-c3cnc(N)c4c(-c5ccc6c(c5)CCN6C(=O)Cc5ccccc5)csc34)cn2)C(C)(C)C)cc1 [216-10] | 25
14 | Cc1ncsc1-c1ccc([C@H](C)NC(=O)[C@@H]2C[C@@H](O)CN2C(=O)[C@@H](NC(=O)CCCNC(=O)Cn2cc(-c3cnc(N)c4c(-c5ccc6c(c5)CCN6C(=O)Cc5ccccc5)csc34)cn2)C(C)(C)C)cc1 [216-11] | 62
15 | Cc1ncsc1-c1ccc([C@H](C)NC(=O)[C@@H]2C[C@@H](O)CN2C(=O)[C@@H](NC(=O)CCCCNC(=O)Cn2cc(-c3cnc(N)c4c(-c5ccc6c(c5)CCN6C(=O)Cc5ccccc5)csc34)cn2)C(C)(C)C)cc1 [216-12] | 51
16 | Cc1ncsc1-c1ccc([C@H](C)NC(=O)[C@@H]2C[C@@H](O)CN2C(=O)[C@@H](NC(=O)CCCCCNC(=O)Cn2cc(-c3cnc(N)c4c(-c5ccc6c(c5)CCN6C(=O)Cc5ccccc5)csc34)cn2)C(C)(C)C)cc1 [216-13] | 93

Row | Structure (SMILES) | Dmax [%]
17 | Cc1ncsc1-c1ccc([C@H](C)NC(=O)[C@@H]2C[C@@H](O)CN2C(=O)[C@@H](NC(=O)CCCCCCNC(=O)Cn2cc(-c3cnc(N)c4c(-c5ccc6c(c5)CCN6C(=O)Cc5ccccc5)csc34)cn2)C(C)(C)C)cc1 [216-14] | 88
18 | Cc1ncsc1-c1ccc([C@H](C)NC(=O)[C@@H]2C[C@@H](O)CN2C(=O)[C@@H](NC(=O)CCCCCCCNC(=O)Cn2cc(-c3cnc(N)c4c(-c5ccc6c(c5)CCN6C(=O)Cc5ccccc5)csc34)cn2)C(C)(C)C)cc1 [216-15] | 94
19 | Cc1ncsc1-c1ccc([C@H](C)NC(=O)[C@@H]2C[C@@H](O)CN2C(=O)[C@@H](NC(=O)CCCCCCCCNC(=O)Cn2cc(-c3cnc(N)c4c(-c5ccc6c(c5)CCN6C(=O)Cc5ccccc5)csc34)cn2)C(C)(C)C)cc1 [216-16] | 93
20 | Cc1ncsc1-c1ccc([C@H](C)NC(=O)[C@@H]2C[C@@H](O)CN2C(=O)[C@@H](NC(=O)COc2ccc(NC(=O)Cn3cc(-c4cnc(N)c5c(-c6ccc7c(c6)CCN7C(=O)Cc6ccccc6)csc45)cn3)cc2)C(C)(C)C)cc1 [217-10] | 96
21 | Cc1ncsc1-c1ccc([C@H](C)NC(=O)[C@@H]2C[C@@H](O)CN2C(=O)[C@@H](NC(=O)CCCOc2ccc(NC(=O)Cn3cc(-c4cnc(N)c5c(-c6ccc7c(c6)CCN7C(=O)Cc6ccccc6)csc45)cn3)cc2)C(C)(C)C)cc1 [217-11] | 95
22 | Cc1ncsc1-c1ccc([C@H](C)NC(=O)[C@@H]2C[C@@H](O)CN2C(=O)[C@@H](NC(=O)CCCCOc2ccc(NC(=O)Cn3cc(-c4cnc(N)c5c(-c6ccc7c(c6)CCN7C(=O)Cc6ccccc6)csc45)cn3)cc2)C(C)(C)C)cc1 [217-12] | 93
23 | Cc1ncsc1-c1ccc([C@H](C)NC(=O)[C@@H]2C[C@@H](O)CN2C(=O)[C@@H](NC(=O)CCCCCOc2ccc(NC(=O)Cn3cc(-c4cnc(N)c5c(-c6ccc7c(c6)CCN7C(=O)Cc6ccccc6)csc45)cn3)cc2)C(C)(C)C)cc1 [217-13] | 92
24 | Cc1ncsc1-c1ccc([C@H](C)NC(=O)[C@@H]2C[C@@H](O)CN2C(=O)[C@@H](NC(=O)COCCOc2ccc(CNC(=O)Cn3cc(-c4cnc(N)c5c(-c6ccc7c(c6)CCN7C(=O)Cc6ccccc6)csc45)cn3)cc2)C(C)(C)C)cc1 [224-5] | 93
25 | Cc1ncsc1-c1ccc([C@H](C)NC(=O)[C@@H]2C[C@@H](O)CN2C(=O)[C@@H](NC(=O)COCCOc2ccc(CCNC(=O)Cn3cc(-c4cnc(N)c5c(-c6ccc7c(c6)CCN7C(=O)Cc6ccccc6)csc45)cn3)cc2)C(C)(C)C)cc1 [224-6] | 93
26 | Cc1ncsc1-c1ccc([C@H](C)NC(=O)[C@@H]2C[C@@H](O)CN2C(=O)[C@@H](NC(=O)COCCOCCOc2ccc(CNC(=O)Cn3cc(-c4cnc(N)c5c(-c6ccc7c(c6)CCN7C(=O)Cc6ccccc6)csc45)cn3)cc2)C(C)(C)C)cc1 [224-7] | 93
27 | Cc1ncsc1-c1ccc([C@H](C)NC(=O)[C@@H]2C[C@@H](O)CN2C(=O)[C@@H](NC(=O)COCCOCCOc2ccc(CCNC(=O)Cn3cc(-c4cnc(N)c5c(-c6ccc7c(c6)CCN7C(=O)Cc6ccccc6)csc45)cn3)cc2)C(C)(C)C)cc1 [224-8] | 92
28 | Cc1ncsc1-c1ccc([C@H](C)NC(=O)[C@@H]2C[C@@H](O)CN2C(=O)[C@@H](NC(=O)CN2CCN(C3CCN(C(=O)Cn4cc(-c5cnc(N)c6c(-c7ccc8c(c7)CCN8C(=O)Cc7ccccc7)csc56)cn4)CC3)CC2)C(C)(C)C)cc1 [225-2] | 91
29 | Cc1ncsc1-c1ccc([C@H](C)NC(=O)[C@@H]2C[C@@H](O)CN2C(=O)[C@@H](NC(=O)CN2CCN(C(=O)Cn3cc(-c4cnc(N)c5c(-c6ccc7c(c6)CCN7C(=O)Cc6ccccc6)csc45)cn3)CC2)C(C)(C)C)cc1 [225-3] | 87
30 | Cc1ncsc1-c1ccc([C@H](C)NC(=O)[C@@H]2C[C@@H](O)CN2C(=O)[C@@H](NC(=O)CN2CCN(CC3CCN(C(=O)Cn4cc(-c5cnc(N)c6c(-c7ccc8c(c7)CCN8C(=O)Cc7ccccc7)csc56)cn4)CC3)CC2)C(C)(C)C)cc1 [225-4] | 93
31 | Cc1ncsc1-c1ccc([C@H](C)NC(=O)[C@@H]2C[C@@H](O)CN2C(=O)[C@@H](NC(=O)CN2CCN(CC3CCN(CC4CCN(C(=O)Cn5cc(-c6cnc(N)c7c(-c8ccc9c(c8)CCN9C(=O)Cc8ccccc8)csc67)cn5)CC4)CC3)CC2)C(C)(C)C)cc1 [225-5, (2S,4R)-1-((S)-2-(2-(4-((1-((1-(2-(4-(4-Amino-3-(1-(2-phenylacetyl)indolin-5-yl)thieno[3,2-c]pyridin-7-yl)-1H-pyrazol-1-yl)acetyl)piperidin-4-yl)methyl)piperidin-4-yl)methyl)piperazin-1-yl)acetamido)-3,3-dimethylbutanoyl)-4-hydroxy-N-((S)-1-(4-(4-methylthiazol-5-yl)phenyl)ethyl)pyrrolidine-2-carboxamide] | 93
